Data published in ChEMBL document CHEMBL1201862, “PubChem BioAssay data set” (2004).
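48-hour exposure; five concentrations; linearly interpolated endpoints. GI50 marks 50% less growth.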 The source made the active and inactive calls. No stated cut-off is given here; in the data, active = GI50 up to about 1.1 µM and inactive = higher.

Key:
Experiment in all cases: inhibition of tumour cell growth, NCI panel, 48 h
OVCAR-4 = test system: OVCAR-4
SW-620 = test system: SW-620
HT-29 = test system: HT-29
KM12 = test system: KM12
SK-OV-3 = test system: SK-OV-3
CAKI-1 = test system: CAKI-1
NCI/ADR-RES = test system: NCI/ADR-RES
CCRF-CEM = test system: CCRF-CEM
SK-MEL-28 = test system: SK-MEL-28
HCC 2998 = test system: HCC 2998
NCI-H522 = test system: NCI-H522
TK-10 = test system: TK-10
M14 = test system: M14
HL-60 = test system: HL-60
SR = test system: SR
UO-31 = test system: UO-31
NCI-H23 = test system: NCI-H23
786-0 = test system: 786-0
NCI-H460 = test system: NCI-H460
OVCAR-5 = test system: OVCAR-5

Structure (SMILES) | GI50 (OVCAR-4) | GI50 (SW-620) | GI50 (HT-29) | GI50 (KM12) | GI50 (SK-OV-3) | GI50 (CAKI-1) | GI50 (NCI/ADR-RES) | GI50 (CCRF-CEM) | GI50 (SK-MEL-28) | GI50 (HCC 2998) | GI50 (NCI-H522) | GI50 (TK-10) | GI50 (M14) | GI50 (HL-60) | GI50 (SR) | GI50 (UO-31) | GI50 (NCI-H23) | GI50 (786-0) | GI50 (NCI-H460) | GI50 (OVCAR-5)
CC(N/N=C(\S)N1CCCC1)c1cccnn1 (stereo not given) | 0.695 µM (active) | 0.579 µM (active) | 0.426 µM (active) | 0.719 µM (active) | 0.337 µM (active) | 0.713 µM (active) | 0.48 µM (active) | 0.274 µM (active) | 0.453 µM (active) | 18.5 µM (inactive) | 2.31 µM (inactive) | 0.54 µM (active) | 0.378 µM (active) | 0.361 µM (active) | 0.378 µM (active) | 0.741 µM (active) | 0.561 µM (active) | 0.452 µM (active) | 0.306 µM (active) | 0.318 µM (active)
O=C1OC(C(O)C(O)C(O)CO)C(O)C1O (stereo not given) | > 100 µM (inactive) | > 100 µM (inactive) | > 100 µM (inactive) | > 100 µM (inactive) | > 100 µM (inactive) | > 100 µM (inactive) | > 100 µM (inactive) | > 100 µM (inactive) | > 100 µM (inactive) | > 100 µM (inactive) | > 100 µM (inactive) | > 100 µM (inactive) | > 100 µM (inactive) | > 100 µM (inactive) | > 100 µM (inactive) | > 100 µM (inactive) | > 100 µM (inactive) | > 100 µM (inactive) | > 100 µM (inactive) | > 100 µM (inactive)
Cc1ccc(S(=O)(=O)Oc2cc(S(=O)(=O)O)cc3cc(S(=O)(=O)O)cc(N)c23)cc1 | > 100 µM (inactive) | > 100 µM (inactive) | > 100 µM (inactive) | > 100 µM (inactive) | > 100 µM (inactive) | > 100 µM (inactive) | > 100 µM (inactive) | > 100 µM (inactive) | > 100 µM (inactive) | > 100 µM (inactive) | > 100 µM (inactive) | > 100 µM (inactive) | > 100 µM (inactive) | > 100 µM (inactive) | > 100 µM (inactive) | 41.1 µM (inactive) | > 100 µM (inactive) | > 100 µM (inactive) | > 100 µM (inactive) | > 100 µM (inactive)
CC(C)=CCc1c(O)cc2oc(-c3ccc(O)cc3O)cc(=O)c2c1O | 20.2 µM (inactive) | 28 µM (inactive) | 23.1 µM (inactive) | 19.5 µM (inactive) | 36 µM (inactive) | 28.5 µM (inactive) | 33.3 µM (inactive) | 8.11 µM (inactive) | 31.6 µM (inactive) | 17.3 µM (inactive) | 22.3 µM (inactive) | 22 µM (inactive) | 27.9 µM (inactive) | 20.1 µM (inactive) | 18.2 µM (inactive) | 4.32 µM (inactive) | 24.6 µM (inactive) | 26 µM (inactive) | 36.6 µM (inactive) | 31 µM (inactive)
CC/C(Cl)=N\OC(=O)Nc1ccc(F)c([N+](=O)[O-])c1 | 4.99 µM (inactive) | 4.15 µM (inactive) | 24.9 µM (inactive) | 17.5 µM (inactive) | 19.1 µM (inactive) | 2.85 µM (inactive) | 26.9 µM (inactive) | 2.59 µM (inactive) | 16.6 µM (inactive) | 29.4 µM (inactive) | 1.93 µM (inactive) | 11.6 µM (inactive) | 10.3 µM (inactive) | 2.39 µM (inactive) | > 39.5 µM (inactive) | 6.03 µM (inactive) | 13.8 µM (inactive) | 6.64 µM (inactive) | 3.73 µM (inactive) | 22.7 µM (inactive)
C=CCC1(O)C(=O)OC2C(O)COC21O (stereo not given) | > 100 µM (inactive) | > 100 µM (inactive) | > 100 µM (inactive) | > 100 µM (inactive) | > 100 µM (inactive) | > 100 µM (inactive) | > 100 µM (inactive) | > 100 µM (inactive) | 23 µM (inactive) | > 100 µM (inactive) | > 100 µM (inactive) | > 100 µM (inactive) | > 100 µM (inactive) | > 100 µM (inactive) | > 100 µM (inactive) | > 100 µM (inactive) | > 100 µM (inactive) | > 100 µM (inactive) | > 100 µM (inactive) | > 100 µM (inactive)
O=C1c2ccccc2C(=O)c2c1ccc1nc3c(nc21)-c1c2ccccc2cc2cccc-3c12 | > 70.1 µM (inactive) | > 63.1 µM (inactive) | 27 µM (inactive) | 8.36 µM (inactive) | 41.1 µM (inactive) | 23.4 µM (inactive) | 36.3 µM (inactive) | 5.33 µM (inactive) | > 92.7 µM (inactive) | > 95.3 µM (inactive) | 27.2 µM (inactive) | 52.4 µM (inactive) | 32.4 µM (inactive) | 10 µM (inactive) | 5.27 µM (inactive) | 17.6 µM (inactive) | 41.6 µM (inactive) | 21.5 µM (inactive) | 26.2 µM (inactive) | > 100 µM (inactive)
C[N+]12CCCCC1C(CN1C(=O)Cc3c4ccccc4c(c4ccccc34)CC1=O)CCC2 (stereo not given) | > 100 µM (inactive) | > 100 µM (inactive) | > 100 µM (inactive) | > 100 µM (inactive) | > 100 µM (inactive) | > 100 µM (inactive) | > 100 µM (inactive) | > 100 µM (inactive) | > 100 µM (inactive) | > 100 µM (inactive) | > 100 µM (inactive) | > 100 µM (inactive) | > 100 µM (inactive) | > 100 µM (inactive) | > 100 µM (inactive) | > 100 µM (inactive) | > 100 µM (inactive) | > 100 µM (inactive) | > 100 µM (inactive) | > 100 µM (inactive)
CCC/C(Cl)=N\OC(=O)Nc1ccc(Br)cc1 | 21.5 µM (inactive) | 2.36 µM (inactive) | 17.7 µM (inactive) | 10.8 µM (inactive) | 16.8 µM (inactive) | 4.36 µM (inactive) | 8.99 µM (inactive) | 1.78 µM (inactive) | 18.2 µM (inactive) | 17.3 µM (inactive) | 1.75 µM (inactive) | 14.2 µM (inactive) | 12 µM (inactive) | 1.99 µM (inactive) | 5.68 µM (inactive) | 13 µM (inactive) | 17.4 µM (inactive) | 7.24 µM (inactive) | 16.5 µM (inactive) | 13.9 µM (inactive)
O=C1C(C(c2ccc([N+](=O)[O-])cc2)N2CCOCC2)=C(O)C(c2ccccc2)N1c1ccccc1 (stereo not given) | > 10 µM (inactive) | > 10 µM (inactive) | > 10 µM (inactive) | > 10 µM (inactive) | > 10 µM (inactive) | > 10 µM (inactive) | > 10 µM (inactive) | > 10 µM (inactive) | > 10 µM (inactive) | > 10 µM (inactive) | > 10 µM (inactive) | > 10 µM (inactive) | > 10 µM (inactive) | > 10 µM (inactive) | > 10 µM (inactive) | > 10 µM (inactive) | > 10 µM (inactive) | > 10 µM (inactive) | > 10 µM (inactive) | > 10 µM (inactive)
